Experimental data as given in patent publication US9096560B2, “5-heterocyclylalkyl-3-hydroxy-2-phenylcyclopent-2-enones as herbicides” (Syngenta Limited, priority 2008, dated 2015).

How the values were obtained:
Format in all cases: in vivo
Lolium perenne (LOLPE) [1] = assay: Example B pre-emergence herbicidal test, LOLPE; details: Lolium perenne, 312 h, rate 250 g/ha, evaluated after 13 days, 100=total damage to plant, 0=no damage to plant
In short: (§1)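 Plants were rated 13 days after treatment, 0 = no damage to 100 = total damage. They were grown in a glasshouse at 24/16 °C, 14 h light, 65% humidity and watered twice daily. Pre-emergence spray was applied one day after sowing, formulated in acetone/water 50:50 with 0.5% Tween 20.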

[2] = system: Alopecurus myosuroides (ALOMY); assay: Example B pre-emergence herbicidal test, ALOMY; details: Alopecurus myosuroides, 312 h, rate 250 g/ha, evaluated after 13 days, 100=total damage to plant, 0=no damage to plant
In short: as §1

[3] = system: Echinochloa crus-galli (ECHCG); assay: Example B pre-emergence herbicidal test, ECHCG; details: Echinochloa crus-galli, 312 h, rate 250 g/ha, evaluated after 13 days, 100=total damage to plant, 0=no damage to plant
In short: as §1

Avena fatua (AVEFA) [4] = assay: Example B pre-emergence herbicidal test, AVEFA; details: Avena fatua, 312 h, rate 250 g/ha, evaluated after 13 days, 100=total damage to plant, 0=no damage to plant
In short: as §1

Lolium perenne (LOLPE) [5] = assay: Example B post-emergence herbicidal test, LOLPE; details: Lolium perenne, 312 h, rate 250 g/ha, evaluated after 13 days, scale 0-100, read-out: Post-emergence activity LOLPE (100=total damage to plant; 0=no damage to plant)
In short: (§2)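 Plants grown from seed in standard soil for 8 days in a glasshouse (24/16 °C day/night, 14 h light, 65% humidity), then sprayed with an aqueous solution from the active ingredient formulated in acetone/water (50:50) with 0.5% Tween 20. Damage scored after 13 days, 0 (none) to 100 (total).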

[6] = system: Alopecurus myosuroides (ALOMY); assay: Example B post-emergence herbicidal test, ALOMY; details: Alopecurus myosuroides, 312 h, rate 250 g/ha, evaluated after 13 days, scale 0-100, read-out: Post-emergence activity ALOMY (100=total damage to plant; 0=no damage to plant)
In short: as §2

[7] = system: Echinochloa crus-galli (ECHCG); assay: Example B post-emergence herbicidal test, ECHCG; details: Echinochloa crus-galli, 312 h, rate 250 g/ha, evaluated after 13 days, scale 0-100, read-out: Post-emergence activity ECHCG (100=total damage to plant; 0=no damage to plant)
In short: as §2

Avena fatua (AVEFA) [8] = assay: Example B post-emergence herbicidal test, AVEFA; details: Avena fatua, 312 h, rate 250 g/ha, evaluated after 13 days, scale 0-100, read-out: Post-emergence activity AVEFA (100=total damage to plant; 0=no damage to plant)
In short: as §2

| SMILES | pest or weed control at 250 g/ha (Lolium perenne (LOLPE) [1]) | pest or weed control at 250 g/ha [2] | pest or weed control at 250 g/ha [3] | pest or weed control at 250 g/ha (Avena fatua (AVEFA) [4]) | pest or weed control at 250 g/ha (Lolium perenne (LOLPE) [5]) | pest or weed control at 250 g/ha [6] | pest or weed control at 250 g/ha [7] | pest or weed control at 250 g/ha (Avena fatua (AVEFA) [8]) |
| --- | --- | --- | --- | --- | --- | --- | --- | --- |
| Cc1cc(C)c(C2C(=O)CC(CC3CCN(C(=O)Cc4ccccc4)CC3)C2=O)c(C)c1 (stereo not drawn) [Compound T82] | 90% | 50% | 60% | 50% | 90% | 90% | 80% | 100% |
| CCC(=O)N1CCC(CC2CC(=O)C(c3c(C)cc(C)cc3C)C2=O)CC1 (stereo not drawn) [Compound T83] | 90% | 60% | 90% | 70% | 90% | 80% | 70% | 100% |
| CCCCC(=O)N1CCC(CC2CC(=O)C(c3c(C)cc(C)cc3C)C2=O)CC1 (stereo not drawn) [Compound T85] | 60% | 60% | 30% | 20% | 90% | 90% | 80% | 90% |
| Cc1cc(C)c(C2C(=O)CC(CC3CCN(C(=O)OCC(Cl)(Cl)Cl)CC3)C2=O)c(C)c1 (stereo not drawn) [Compound T86] | 100% | 60% | 50% | 30% | 70% | 40% | 80% | 80% |
| Cc1cc(C)c(C2C(=O)CC(CC3CCN(C(=O)C(C)Cl)CC3)C2=O)c(C)c1 (stereo not drawn) [Compound T87] | 100% | 90% | 60% | 90% | 90% | 70% | 70% | 90% |
| Cc1cc(C)c(C2C(=O)CC(CC3CCN(C(=O)C4CCCCC4)CC3)C2=O)c(C)c1 (stereo not drawn) [Compound T89] | 70% | 50% | 60% | 10% | 40% | 30% | 40% | 20% |
| Cc1cc(C)c(C2C(=O)CC(CC3CCN(C(=O)c4ccco4)CC3)C2=O)c(C)c1 (stereo not drawn) [Compound T90] | 60% | 40% | 50% | 60% | 80% | 70% | 80% | 100% |
| Cc1cc(C)c(C2C(=O)CC(CC3CCN(S(=O)(=O)c4ccccc4)CC3)C2=O)c(C)c1 (stereo not drawn) [Compound T91] | 70% | 20% | 60% | 40% | 50% | 40% | 50% | 90% |
| Cc1cc(C)c(C2C(=O)CC(CC3CCN(S(=O)(=O)c4ccc(Cl)cc4)CC3)C2=O)c(C)c1 (stereo not drawn) [Compound T92] | 30% | 30% | 40% | 10% | 20% | 30% | 40% | 60% |
| Cc1cc(C)c(C2C(=O)CC(CC3CCN(S(=O)(=O)C(C)C)CC3)C2=O)c(C)c1 (stereo not drawn) [Compound T93] | 90% | 60% | 90% | 60% | 70% | 60% | 60% | 70% |
| Cc1cc(C)c(C2C(=O)CC(CC3CCN(S(C)(=O)=O)CC3)C2=O)c(C)c1 (stereo not drawn) [Compound T94] | 90% | 90% | 80% | 90% | 90% | 100% | 90% | 100% |
| CCS(=O)(=O)N1CCC(CC2CC(=O)C(c3c(C)cc(C)cc3C)C2=O)CC1 (stereo not drawn) [Compound T95] | 100% | 90% | 60% | 90% | 100% | 90% | 70% | 100% |
| CCCCS(=O)(=O)N1CCC(CC2CC(=O)C(c3c(C)cc(C)cc3C)C2=O)CC1 (stereo not drawn) [Compound T96] | 60% | 20% | 20% | 10% | 60% | 60% | 40% | 40% |
| COc1ccc(C(=O)N2CCC(CC3CC(=O)C(c4c(C)cc(C)cc4C)C3=O)CC2)cc1 (stereo not drawn) [Compound T97] | 70% | 30% | 60% | 30% | 60% | 70% | 80% | 70% |
| Cc1cc(C)c(C2C(=O)CC(CC3CCN(C(=O)c4ccc(C(F)(F)F)cc4)CC3)C2=O)c(C)c1 (stereo not drawn) [Compound T99] | 60% | 20% | 60% | 30% | 50% | 70% | 90% | 90% |
| Cc1cc(C)c(C2C(=O)CC(CC3CCN(C(=O)N4CCOCC4)CC3)C2=O)c(C)c1 (stereo not drawn) [Compound T100] | 90% | 60% | 70% | 60% | 80% | 90% | 60% | 90% |
| C=CCOC(=O)N1CCC(CC2CC(=O)C(c3c(C)cc(C)cc3C)C2=O)CC1 (stereo not drawn) [Compound T101] | 50% | 20% | 50% | 30% | 40% | 40% | 20% | 40% |
| C=COC(=O)N1CCC(CC2CC(=O)C(c3c(C)cc(C)cc3C)C2=O)CC1 (stereo not drawn) [Compound T102] | 70% | 50% | 50% | 30% | 80% | 90% | 40% | 90% |
| Cc1cc(C)c(C2C(=O)CC(CC3CCN(C(=O)OCCCl)CC3)C2=O)c(C)c1 (stereo not drawn) [Compound T103] | 30% | 30% | 10% | 20% | 50% | 50% | 30% | 60% |
| CC(C)=CC(=O)N1CCC(CC2CC(=O)C(c3c(C)cc(C)cc3C)C2=O)CC1 (stereo not drawn) [Compound T104] | 70% | 60% | 90% | 60% | 80% | 70% | 70% | 90% |
| Cc1cc(C)c(C2C(=O)CC(CC3CCN(C(=O)C(Cl)(Cl)Cl)CC3)C2=O)c(C)c1 (stereo not drawn) [Compound T105] | 60% | 20% | 40% | 30% | 50% | 30% | 30% | 40% |
